# Source: publication PMC6263802 (Journal of natural products, 2018)
# Like-named read-outs stand apart in the source and are kept apart here.
# What was measured:
# [1] = molecular target: T1, hiCE (human intestinal CE; CES2) (Homo sapiens, UniProt O00748); assay: Inhibition of hiCE with o-NPA as substrate, spectrophotometric assay; type: biochemical; details: compared to the parent tanshinone
# T1 sequence (O00748 27-555 limits assumed): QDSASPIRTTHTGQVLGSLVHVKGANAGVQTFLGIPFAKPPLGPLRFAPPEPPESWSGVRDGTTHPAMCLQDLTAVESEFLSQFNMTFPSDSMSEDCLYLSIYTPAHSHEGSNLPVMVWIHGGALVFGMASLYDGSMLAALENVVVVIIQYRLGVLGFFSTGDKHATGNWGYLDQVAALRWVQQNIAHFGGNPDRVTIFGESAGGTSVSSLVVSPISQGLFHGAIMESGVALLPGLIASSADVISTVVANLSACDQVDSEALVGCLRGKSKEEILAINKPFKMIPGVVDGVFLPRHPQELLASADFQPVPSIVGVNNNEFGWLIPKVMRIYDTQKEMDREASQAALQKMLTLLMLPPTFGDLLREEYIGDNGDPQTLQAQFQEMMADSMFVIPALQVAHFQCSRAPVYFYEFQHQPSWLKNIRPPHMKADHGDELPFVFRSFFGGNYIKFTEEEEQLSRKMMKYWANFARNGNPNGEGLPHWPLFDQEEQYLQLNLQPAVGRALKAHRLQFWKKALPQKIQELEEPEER
# [2] = molecular target: T2, hCE1 (human liver CE; CES1) (Homo sapiens, UniProt P23141); assay: Inhibition of hCE1 with o-nitrophenyl acetate; type: biochemical; details: for hCE1 (o-NPA) Fold increase in potency: compared to the parent tanshinone
# T2 sequence (P23141 18-563 limits assumed): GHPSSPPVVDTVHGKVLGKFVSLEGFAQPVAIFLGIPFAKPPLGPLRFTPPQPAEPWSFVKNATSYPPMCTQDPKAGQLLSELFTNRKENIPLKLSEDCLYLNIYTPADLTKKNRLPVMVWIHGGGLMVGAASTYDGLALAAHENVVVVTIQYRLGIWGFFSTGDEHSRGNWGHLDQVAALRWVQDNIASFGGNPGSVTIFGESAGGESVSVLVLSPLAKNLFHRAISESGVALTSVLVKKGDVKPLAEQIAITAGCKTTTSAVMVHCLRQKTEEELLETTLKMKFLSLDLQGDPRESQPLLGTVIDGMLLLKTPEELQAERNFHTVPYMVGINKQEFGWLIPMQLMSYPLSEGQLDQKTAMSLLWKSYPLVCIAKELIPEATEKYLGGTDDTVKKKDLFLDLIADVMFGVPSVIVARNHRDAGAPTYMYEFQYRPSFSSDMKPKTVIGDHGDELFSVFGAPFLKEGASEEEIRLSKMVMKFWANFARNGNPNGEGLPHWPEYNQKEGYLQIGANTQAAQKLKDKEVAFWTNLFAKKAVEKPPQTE
# hCE1 [3] = molecular target: T3, hCE1 (Homo sapiens, UniProt P23141); assay: MS analysis of hCE1 protein after incubation with small molecules; details: for Increase in mass of hCE1 after incubation: all three enzyme species, 4 at 10μM
# T3 sequence (P23141 18-563 limits assumed): T2 sequence (P23141 18-563 limits assumed)
# hiCE = molecular target: T4, hiCE (Homo sapiens, UniProt O00748); type: biochemical; details: after pre-incubation and removal of the small molecule
# T4 sequence (O00748 27-555 limits assumed): T1 sequence (O00748 27-555 limits assumed)
# hCE1 [4] = molecular target: T3, hCE1; type: biochemical; details: after pre-incubation and removal of the small molecule
# hAChE = hAChE (Homo sapiens, UniProt P22303); assay: Inhibition of human acetylcholinesterase with acetylthiocholine; type: biochemical; details: for inhibition at 10 µM: read-out: hAChE % Inhibition at 10μM
# hBChE = hBChE (Homo sapiens, UniProt P06276); assay: Inhibition of human butyrylcholinesterase with butyrylthiocholine; type: biochemical; details: for inhibition at 10 µM: read-out: hBChE % Inhibition at 10μM
# [5] = molecular target: T2, hCE1 (human liver CE; CES1); details: read-out: hCE1 (o-NPA) Ki ± SE; parent tanshinones, previously reported; cited from earlier work
# [6] = test system: U373MG cells expressing hCE1; assay: Intracellular inhibition of oseltamivir hydrolysis; type: cell-based, human; details: 10μM inhibitor 10 min, then oseltamivir 20μM 30 min; versus DMSO
# [7] = hCE1 species of 61374 Da (first glycoform)
# [8] = hCE1 species of 61537 Da (second glycoform)
# [9] = hCE1 species of 61698 Da (third glycoform)
# Sequence of hAChE (P22303 32-614): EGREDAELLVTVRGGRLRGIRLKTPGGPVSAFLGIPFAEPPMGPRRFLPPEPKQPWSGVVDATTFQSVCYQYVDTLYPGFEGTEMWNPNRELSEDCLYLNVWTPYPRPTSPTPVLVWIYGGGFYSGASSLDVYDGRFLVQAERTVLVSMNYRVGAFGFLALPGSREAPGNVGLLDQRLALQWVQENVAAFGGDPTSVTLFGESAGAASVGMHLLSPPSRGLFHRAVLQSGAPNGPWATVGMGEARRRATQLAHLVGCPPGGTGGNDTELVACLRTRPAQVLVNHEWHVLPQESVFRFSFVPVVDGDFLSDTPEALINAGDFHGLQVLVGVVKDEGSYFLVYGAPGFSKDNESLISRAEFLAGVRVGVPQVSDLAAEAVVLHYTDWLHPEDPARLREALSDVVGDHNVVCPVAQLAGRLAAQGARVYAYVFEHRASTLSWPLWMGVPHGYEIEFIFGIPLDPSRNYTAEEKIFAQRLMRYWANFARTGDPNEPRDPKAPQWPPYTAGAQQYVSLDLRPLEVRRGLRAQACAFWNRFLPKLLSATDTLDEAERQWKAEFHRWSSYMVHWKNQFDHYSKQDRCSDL
# Sequence of hBChE (P06276 29-602): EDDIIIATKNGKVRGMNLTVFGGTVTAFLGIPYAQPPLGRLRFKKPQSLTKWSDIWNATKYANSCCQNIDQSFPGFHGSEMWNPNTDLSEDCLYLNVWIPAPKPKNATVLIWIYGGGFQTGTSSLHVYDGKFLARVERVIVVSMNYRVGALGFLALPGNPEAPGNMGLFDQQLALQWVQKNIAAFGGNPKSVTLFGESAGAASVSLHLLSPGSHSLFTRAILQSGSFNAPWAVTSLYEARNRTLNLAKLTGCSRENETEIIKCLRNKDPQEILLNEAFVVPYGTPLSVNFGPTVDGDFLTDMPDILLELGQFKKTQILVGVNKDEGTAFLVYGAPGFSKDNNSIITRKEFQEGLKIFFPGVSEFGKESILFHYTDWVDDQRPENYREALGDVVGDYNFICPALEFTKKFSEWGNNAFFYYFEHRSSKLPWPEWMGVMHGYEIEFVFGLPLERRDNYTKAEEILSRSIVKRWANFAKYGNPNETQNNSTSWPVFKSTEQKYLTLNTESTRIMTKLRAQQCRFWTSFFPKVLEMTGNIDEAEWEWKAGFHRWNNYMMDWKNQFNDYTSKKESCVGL
Structure (SMILES),hiCE (o-NPA) Fold increase in potency [1],hCE1 (o-NPA) Fold increase in potency [2],Irreversibility of hiCE inhibition (hiCE),Irreversibility of hCE1 inhibition (hCE1 [4]),IC50 (hAChE) [µM],inhibition at 10 µM (hAChE) [%],IC50 (hBChE) [µM],inhibition at 10 µM (hBChE) [%],Reduction in oseltamivir hydrolysis (oseltamivir carboxylate formed) [6],other results
"Cc1cccc2c1ccc1c3c(c(=O)oc(=O)c12)[C@@H](C)CO3 [Compound 6, 4,9-dimethyl-4,5-dihydrofuro[3,2-c]naphtho[2,1-e]oxepine-1,3-dione]",193 fold,111 fold,irreversible inhibition,irreversible inhibition,–,–,–,–,–,Observed mass of adduct (hCE1 [3]; [7]): 288 Da; Observed mass of adduct (hCE1 [3]; [8]): 289 Da; Observed mass of adduct (hCE1 [3]; [9]): 282 Da
"O=S(=O)(F)Cc1ccccc1 [PMSF, phenylmethanesulfonyl fluoride, reference compound]",–,–,–,–,–,–,–,–,–,Increase in mass of hCE1 after incubation (hCE1 [3]): 154–157 Da
"C[C@H]1COC2=C1C(=O)C(=O)c1c2ccc2c1CCCC2(C)C [Compound 7, Crypto-tanshinone]",–,–,–,–,6.41,44,> 10,1,–,–
"Cc1cccc2c3c(ccc12)C1=C(C(=O)C3=O)[C@@H](C)CO1 [Compound 5, Dihydro-tanshinone]",–,–,–,–,–,–,–,–,–,"Ki [5]: 0.398 ± 0.066 µM; hAChE % Inhibition at 10μM (hAChE; 10μM inhibitor): 84%; IC50 (hAChE; read-out: hAChE IC50 ± SE, ATCh substrate): 1.95 µM; hBChE % Inhibition at 10μM (hBChE; 10μM inhibitor): 5%; IC50 (hBChE; read-out: hBChE IC50 ± SE, BTCh substrate): > 10 µM"
"Cc1coc2c1c(=O)oc(=O)c1c3c(ccc12)C(C)(C)CCC3 [Compound 4, 4,9,9-trimethyl-9,10,11,12-tetrahydrofuro[3,2-c]naphtho[2,1-e]oxepine-1,3-dione]","1,750 fold","3,626 fold",irreversible inhibition,irreversible inhibition,–,–,–,–,more than 70%,IC50 [2]: 0.00106 µM; Increase in mass of hCE1 after incubation (hCE1 [3]): 308–312 Da; Observed mass of adduct (hCE1 [3]; [7]): 312 Da; Observed mass of adduct (hCE1 [3]; [8]): 308 Da; Observed mass of adduct (hCE1 [3]; [9]): 309.8 Da; Irreversibility of hiCE inhibition (hiCE; listed as A): irreversible enzyme inhibition; Irreversibility of hCE1 inhibition (hCE1 [4]; listed as A): irreversible enzyme inhibition
"Cc1coc2c1C(=O)C(=O)c1c-2ccc2c1CCCC2(C)C [Compound 3, Tanshinone IIA]",–,–,–,–,> 10,4,> 10,1,–,–
"C[C@H]1COc2c1c(=O)oc(=O)c1c3c(ccc21)C(C)(C)CCC3 [Compound 8, 4,9,9-trimethyl-4,5,9,10,11,12-hexahydrofuro[3,2-c]naphtho[2,1-e]oxepine-1,3-dione]",188 fold,194 fold,irreversible inhibition,irreversible inhibition,–,–,–,–,more than 70%,IC50 [2]: 0.00133 µM; Irreversibility of hiCE inhibition (hiCE; listed as B): irreversible enzyme inhibition; Irreversibility of hCE1 inhibition (hCE1 [4]; listed as B): irreversible enzyme inhibition
"Cc1cccc2c1ccc1c3occ(C)c3c(=O)oc(=O)c21 [Compound 2, 4,9-dimethylfuro[3,2-c]naphtho[2,1-e]oxepine-1,3-dione]","17,744 fold","10,937 fold",irreversible inhibition,irreversible inhibition,–,–,–,–,more than 70%,–
"Cc1coc2c1C(=O)C(=O)c1c-2ccc2c(C)cccc12 [Compound 1, Tanshinone I]",–,–,–,–,> 10,10,> 10,6,–,–
